The target of one test is T1, A2 receptors (Rattus norvegicus, UniProt P30543).
T1 construct: The two hemispheres are separated and the striatum is removed from each of them (Bruns et al., 1986); from tissue; host or cells: rat striatum (membrane homogenate)
Briefly: Binding to adenosine A2 receptors: competitive displacement of [^3 H] NECA, rat striatum membranes. Particulars: [^3 H] NECA 4 nM, n=3; for inhibition at 10 µM: read-out: % displacement of the labeled ligand, A2, 1E-5M; for inhibition at 0.1 µM: read-out: % displacement of the labeled ligand, A2, 1E-7M. The protocol: (§1) The affinity of the products of the Examples for the rat central A1 and A2 adenosinergic receptors is determined by the competitive technique using a radioactive ligand specifically bound either to the A1 receptors ([^3 H] PIA) or to the A2 receptors ([^3 H] NECA).
After decapitation of the animal, the brain is quickly removed and washed in cold isotonic solution. The two hemispheres are separated and the striatum is removed from each of them (Bruns et al., 1986), weighed and introduced into a polyallomer tube containing 10 volumes of cold homogenization buffer. The tissue is homogenized with an Ultra-Turrax for 30 seconds (3 times 10 seconds with 10-second intervals, 70% of the maximum speed). The ground material is centrifuged at 50,000 g (≈20,500 rpm) for 10 minutes at 4° C.
The residue obtained is resuspended in 10 volumes of homogenization buffer using a Vortex and homogenized with the Ultra-Turrax (5 to 10 seconds, 70% of the maximum speed).
Adenosine deaminase is then added at a rate of 1 U/ml, i.e. 1 μl/ml of homogenate, using a 10 μl Hamilton syringe. The homogenate treated in this way is shaken at room temperature for 30 minutes.
When the incubation is complete, the homogenate is centrifuged at 50,000 g (≈20,500 rpm) for 10 minutes at 4° C.
The residue is taken up with 5 volumes of cold homogenization buffer and passed through the Ultra-Turrax (2 times 10 seconds with a 10-second interval, 70% of the maximum speed) and the homogenate prepared in this way is finally frozen at -70° C.
After the homogenate has been thawed at room temperature, 15 volumes of incubation buffer are added. The homogenate is shaken on a Vortex, passed through a Potter homogenizer (6 to-and-fro movements, speed 6), diluted to 1/10 in incubation buffer and finally placed in a water bath thermostated at 4° C., with shaking, until the end of the experiment.
50 μl of [^3 H] NECA at 160 nM, i.e. 4 nM in the final reaction medium allowing for the 1/40 dilution, and 50 μl of the product of the Example at the concentrations considered (10^-5 M and 10^-7 M) are introduced into the reaction tubes. The reaction is initiated by the addition of 1 ml of homogenate and 900 μl of incubation buffer. The procedure is similar for all the compounds studied.
The tubes are shaken and incubated in a water bath at 25° C. for 60 minutes. When the incubation is complete, the contents of the tubes are filtered on Whatman GF/B paper. Each tube is washed twice with 2 ml of rinsing buffer and then the filters themselves are rinsed with 3 ml of this same buffer before being transferred to counting flasks.
10 ml of liquid scintillator (Ready Solv HP/b, Beckman) are added to all the flasks. These are shaken and stored in a refrigerator overnight. The radioactivity is determined in a liquid scintillation counter.
3 tests are performed for each concentration studied. The non-specific binding of the [^3 H] NECA is determined by measuring the amount of radioactivity retained on the filter in the presence of 5 μM N-ethylcarboxamidoadenosine (NECA). The value of the non-specific binding is systematically subtracted from that of the tests.
(§2) The results are expressed for each product in the form of the percentage displacement (n=3) of the labeled radioligand at concentrations of 10^-5 M and 10^-7 M.

In the next test the target is T2, A1 receptors (Rattus norvegicus, UniProt P25099).
T2 construct: the brain is quickly removed and washed in cold isotonic solution; from tissue; host or cells: rat brain hemispheres (membrane homogenate)
T2 sequence (P25099 1-326): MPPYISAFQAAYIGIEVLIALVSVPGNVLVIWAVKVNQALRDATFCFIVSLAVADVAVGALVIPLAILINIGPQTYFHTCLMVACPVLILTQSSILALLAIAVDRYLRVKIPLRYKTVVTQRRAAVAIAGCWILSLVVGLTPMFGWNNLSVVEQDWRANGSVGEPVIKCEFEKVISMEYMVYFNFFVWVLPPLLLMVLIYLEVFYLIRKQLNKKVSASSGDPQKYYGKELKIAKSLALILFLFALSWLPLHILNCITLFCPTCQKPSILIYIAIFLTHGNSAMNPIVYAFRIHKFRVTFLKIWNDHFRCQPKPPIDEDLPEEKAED
Description: Binding to adenosine A1 receptors: competitive displacement of [^3 H] PIA, rat brain membranes. To be noted: [^3 H] PIA 2.5 nM, n=3; for inhibition at 10 µM: 10^-5 M, read-out: % displacement of the labeled ligand, A1, 1E-5M; for inhibition at 0.1 µM: read-out: % displacement of the labeled ligand, A1, 1E-7M. The protocol: as §1
After the animal has been sacrificed by decapitation, the brain is quickly removed and washed in cold isotonic solution. The two hemispheres are separated and weighed and each of them is introduced into a polyallomer tube containing 25 volumes of cold homogenization buffer. Homogenization is effected using an Ultra-Turrax for 30 seconds (3 times 10 seconds with 10-second intervals, 70% of the maximum speed). The ground material obtained is centrifuged at 1000 g (≈3000 rpm) for 10 minutes at 4° C.
The supernatant is centrifuged again at 48,000 g (≈20,000 rpm) for 20 minutes at 4° C.
When this step is complete, the residue is taken up with 4 volumes of homogenization buffer, resuspended using a Vortex and homogenized with the Ultra-Turrax. Adenosine deaminase is then added at a rate of 1 U/ml, i.e. 1 μl/ml of homogenate, using a 10 μl Hamilton syringe.
After this treatment, the homogenate is shaken for 30 minutes at room temperature and then centrifuged at […] (≈20,000 rpm) for 30 minutes at 4° C.
The residue obtained is resuspended in 10 volumes of homogenization buffer and passed through the Ultra-Turrax for 20 seconds (2 times 10 seconds with a 10-second interval, 70% of the maximum speed).
The homogenate prepared in this way is used for the competitive tests. It is kept at 4° C. if the studies take place the same day, or stored at -20° C. in the form of 10 ml aliquots.
After the homogenate has been thawed at room temperature, it is passed through a Potter homogenizer (6 manual to-and-fro movements, speed 6), diluted to 2/5 in incubation buffer and placed in a water bath thermostated at 4° C., with shaking, until the end of the experiment.
50 μl of [^3 H] PIA at 100 nM, i.e. 2.5 nM in the final reaction medium allowing for the 1/40 dilution, and 50 μl of the product of the Example at the concentrations considered (10^-5 M and 10^-7 M) are introduced into the reaction tubes. The reaction is initiated by the addition of 1 ml of homogenate and 900 μl of incubation buffer. The procedure is identical for all the […] studied.
The tubes are shaken and incubated in a water bath at 20° C. for 30 minutes. When the incubation is complete, the contents of the tubes are filtered on Whatman GF/B paper. Each tube is washed twice with 2 ml of rinsing buffer and then the filters themselves are rinsed with 3 ml of this same buffer.
The filters are then transferred to counting flasks and 10 ml of liquid scintillator (Ready Solv HP/b, Beckman) are added.
After they have been shaken, the flasks are stored in a refrigerator overnight and the radioactivity is then determined in a liquid scintillation counter.
3 tests are performed for each concentration studied. The non-specific binding of the [^3 H] PIA is assessed by measuring the amount of radioactivity retained on the filter in the presence of 10^-5 M phenylisopropyladenosine (PIA). The value of the non-specific binding is systematically subtracted from that of the tests.
as §2

Test [1] relates to twisting and stretching movements in mice. Description: Phenylbenzoquinone test (analgesic activity). The test is classed as in vivo. Particulars: one hour before phenylbenzoquinone i.p., 5 minutes observation; for ED50: Mus musculus, po, read-out: Phenylbenzoquinone test 50% inhibitory dose. As for the experimental part:
The intraperitoneal injection of phenylbenzoquinone causes twisting and stretching movements in mice. Analgesics prevent or reduce this syndrome, which can be considered as the exteriorization of diffuse abdominal pain.
A 0.02% solution of phenylbenzoquinone in water is administered in a volume of 1 ml/100 g.
The products of the Examples are administered orally one hour before the injection of phenylbenzoquinone.
The stretching and twisting movements are counted for each mouse over an observation period of 5 minutes.

T1 sequence (P30543 whole entry): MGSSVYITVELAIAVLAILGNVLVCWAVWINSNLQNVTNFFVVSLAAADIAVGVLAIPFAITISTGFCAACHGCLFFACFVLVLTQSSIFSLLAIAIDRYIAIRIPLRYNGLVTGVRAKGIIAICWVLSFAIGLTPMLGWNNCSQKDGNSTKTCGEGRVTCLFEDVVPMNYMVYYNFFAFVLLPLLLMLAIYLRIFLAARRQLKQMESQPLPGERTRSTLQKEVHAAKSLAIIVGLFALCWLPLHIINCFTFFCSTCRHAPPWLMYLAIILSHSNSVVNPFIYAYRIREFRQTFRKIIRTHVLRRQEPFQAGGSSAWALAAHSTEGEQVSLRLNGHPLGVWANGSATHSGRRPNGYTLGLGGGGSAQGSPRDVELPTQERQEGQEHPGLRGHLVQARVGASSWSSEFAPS

For the compound `CCNC(=O)[C@H]1O[C@@H](n2cnc3c(NCC4CC4(c4ccccc4)c4ccccc4)ncnc32)[C@H](O)[C@@H]1O` (single isomer, unassigned) [Example 49, β-D-Ribofuranuronamido-N-ethyl-1-deoxy-1-[6-[(-)-[[2,2-diphenylcyclopropyl]methyl]amino]-9H-purin-9-yl]], on A2 receptors (10^-5 M, 10 µM), the “% displacement of the labeled ligand, A2, 1E-5M” value stood at 86%. Besides, the “% displacement of the labeled ligand, A2, 1E-7M” value at A2 receptors (10^-7 M, 0.1 µM) was 0%. The inhibition at 10 µM on A1 receptors was determined as 93%. Also, the “% displacement of the labeled ligand, A1, 1E-7M” value at A1 receptors (10^-7 M, 0.1 µM) worked out at 15%. Further, in test [1] (p.o.), the “Phenylbenzoquinone test 50% inhibitory dose” value amounted to 0.7 mg/kg.
On to `O=C(NC1CC1)[C@H]1O[C@@H](n2cnc3c(NCC4CC45c4ccccc4CCc4ccccc45)ncnc32)[C@H](O)[C@@H]1O` (mixture of isomers) [Example 45, β-D-Ribofuranuronamido-N-cyclopropyl-1-deoxy-1-[6-[(±)-2-[spiro[10',11'-dihydrocyclopropane-1,5'-[5H]-dibenzo[a,d]cycloheptene]methyl]amino]-9H-purin-9-yl]], for which the inhibition at 10 µM came to 79% at A2 receptors (10^-5 M) and 93% on A1 receptors. Further, the inhibition at 0.1 µM came to 12% at A2 receptors (10^-7 M) and 20% at A1 receptors (10^-7 M). Further, the ED50 in test [1] is 1.6 mg/kg.
For `CCNC(=O)[C@H]1O[C@@H](n2cnc3c(NCC4CC4(c4ccccc4)c4ccccc4)ncnc32)[C@H](O)[C@@H]1O` (mixture of isomers) [Example 41, β-D-Ribofuranuronamido-N-ethyl-1-deoxy-1-[6-[(±)-[[2,2-diphenylcyclopropyl]methyl]amino]-9H-purin-9-yl]], in that order: 100%, 98%, 68%, 31% and 0.5 mg/kg.
For `OC[C@H]1O[C@@H](n2cnc3c(NCC4CC4(c4ccccc4)c4ccccc4)ncnc32)[C@H](O)[C@@H]1O` (mixture of isomers) [Example 51, N^6-(±)-[1,1-Diphenylcyclopropan-2-yl]methyladenosine], in that order: 95%, 93%, 56%, 18% and 31 mg/kg.
Take `O=C(NC1CC1)[C@H]1O[C@@H](n2cnc3c(NCC4CC4(c4ccc(F)cc4)c4ccc(F)cc4)ncnc32)[C@H](O)[C@@H]1O` (mixture of isomers) [Example 40, β-D-Ribofuranuronamido-N-cyclopropyl-1-deoxy-1-[6-[(±)-[[2-di(4-fluorophenyl)cyclopropyl]methyl]amino]-9H-purin-9-yl]]: the inhibition at 10 µM worked out at 89% on A2 receptors (10^-5 M) and 94% on A1 receptors. Moreover, the inhibition at 0.1 µM on A2 receptors (10^-7 M) was 53%; at A1 receptors (10^-7 M), 15%. Further, the ED50 in test [1] was 0.5 mg/kg.

The values are drawn from patent US5219839A, “Adenosine derivatives, their methods of preparation and pharmaceutical compositions in which they are present” (Laboratories UPSA, priority 1992, dated 1993).
